Results as given in publication PMC7395850 (Biochemical and biophysical research communications, 2019).
pIC50, pKi: −log10 of the molar value.

Columns and labels:
Format in all cases: biochemical
C-EH in human sEH = molecular target: T1, C-EH in human sEH (Homo sapiens, UniProt P34913); experiment: C-EH activity assay with PHOME substrate, human sEH; settings: for pIC50: read-out: IC50 for C-EH in human sEH, human sEH, PHOME substrate; for time-dependent change in C-EH inhibition, human sEH: preincubation 1.7, 10, 30 and 120 min
T1 sequence (P34913 1-555): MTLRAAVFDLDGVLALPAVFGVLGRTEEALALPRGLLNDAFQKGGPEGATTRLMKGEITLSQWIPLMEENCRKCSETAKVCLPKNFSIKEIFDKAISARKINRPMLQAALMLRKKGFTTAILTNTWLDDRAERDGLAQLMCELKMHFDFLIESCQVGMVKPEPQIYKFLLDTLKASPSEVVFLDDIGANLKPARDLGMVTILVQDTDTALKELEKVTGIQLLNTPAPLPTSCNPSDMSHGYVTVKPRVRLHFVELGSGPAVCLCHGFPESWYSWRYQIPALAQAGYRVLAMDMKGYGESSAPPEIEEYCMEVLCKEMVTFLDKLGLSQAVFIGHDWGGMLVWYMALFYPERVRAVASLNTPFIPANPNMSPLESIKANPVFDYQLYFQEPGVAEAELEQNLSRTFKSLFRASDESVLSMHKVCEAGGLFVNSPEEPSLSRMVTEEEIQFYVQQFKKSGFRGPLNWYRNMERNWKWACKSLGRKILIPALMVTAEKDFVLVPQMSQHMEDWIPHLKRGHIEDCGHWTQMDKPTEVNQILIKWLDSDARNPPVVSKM

N-phos in human sEH = molecular target: T2, N-phos in human sEH (Homo sapiens, UniProt P34913); experiment: N-phos activity assay with AttoPhos substrate, human sEH; settings: for selectivity index (N-phos over C-EH) in human sEH: IC50 C-EH / IC50 N-phos; for pKi: read-out: KI for human N-phos, competitive with respect to AttoPhos; for inhibition mechanism, human N-phos: with respect to the substrate AttoPhos; for inhibition of human N-phos: inhibitor at 30 μM; for inhibition of human N-phos, in words: screening, 30 μM; for species preference of N-phos inhibition (human versus mouse), in words: human at 30 μM versus mouse at 6 μM (Figure 1B)
T2 sequence (P34913 1-555): T1 sequence (P34913 1-555)

C-EH in mouse sEH = molecular target: T3, C-EH in mouse sEH (Mus musculus, UniProt P34914); experiment: C-EH activity assay with PHOME substrate, mouse sEH; settings: for pIC50: read-out: IC50 for C-EH in mouse sEH, mouse sEH, PHOME substrate; for time-dependent change in C-EH inhibition, mouse sEH: preincubation time-window 1.7−120 min
T3 sequence (P34914 1-554): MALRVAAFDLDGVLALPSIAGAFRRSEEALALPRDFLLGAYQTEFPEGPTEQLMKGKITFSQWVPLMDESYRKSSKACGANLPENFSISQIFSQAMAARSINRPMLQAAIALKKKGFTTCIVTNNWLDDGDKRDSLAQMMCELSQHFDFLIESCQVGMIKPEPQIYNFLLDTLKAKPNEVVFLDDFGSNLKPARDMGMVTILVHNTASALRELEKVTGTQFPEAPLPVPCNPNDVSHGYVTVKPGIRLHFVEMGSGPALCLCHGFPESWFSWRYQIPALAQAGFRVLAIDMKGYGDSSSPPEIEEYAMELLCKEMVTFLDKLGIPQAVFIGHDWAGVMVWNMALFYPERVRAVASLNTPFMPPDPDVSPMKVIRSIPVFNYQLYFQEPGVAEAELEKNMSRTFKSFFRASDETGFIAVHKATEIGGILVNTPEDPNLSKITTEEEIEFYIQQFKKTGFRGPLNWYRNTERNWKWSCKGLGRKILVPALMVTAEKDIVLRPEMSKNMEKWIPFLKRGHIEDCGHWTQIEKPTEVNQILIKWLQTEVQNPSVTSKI

N-phos in mouse sEH = molecular target: T4, N-phos in mouse sEH (Mus musculus, UniProt P34914); experiment: N-phos activity assay with AttoPhos substrate, mouse sEH; settings: for pKi: read-out: KI for mouse N-phos, competitive with respect to AttoPhos; for inhibition mechanism, mouse N-phos: with respect to the substrate AttoPhos; for inhibition of mouse N-phos: inhibitor at 6 μM; for inhibition of mouse N-phos, in words: screening, 6 μM; for selectivity index (N-phos over C-EH) in mouse sEH: IC50 C-EH / IC50 N-phos; for species preference of N-phos inhibition (mouse versus human), in words: mouse at 6 μM versus human at 30 μM (Figure 1D)
T4 sequence (P34914 1-554): T3 sequence (P34914 1-554)

| SMILES | pIC50 (C-EH in human sEH) | selectivity index (N-phos over C-EH) in human sEH (N-phos in human sEH) | pKi (N-phos in human sEH) | inhibition mechanism, human N-phos (N-phos in human sEH) | pIC50 (C-EH in mouse sEH) | pKi (N-phos in mouse sEH) | inhibition mechanism, mouse N-phos (N-phos in mouse sEH) | inhibition of human N-phos (N-phos in human sEH) [%] | inhibition of human N-phos, in words (N-phos in human sEH) | inhibition of mouse N-phos (N-phos in mouse sEH) [%] | inhibition of mouse N-phos, in words (N-phos in mouse sEH) | also measured |
| --- | --- | --- | --- | --- | --- | --- | --- | --- | --- | --- | --- | --- |
| CC(=O)N[C@@H](CSC/C=C(\C)CC/C=C(\C)CCC=C(C)C)C(=O)O [AFC, N-Acetyl-S-farnesyl-L-cysteine, reference compound] | < 4.00 | > 29 | 5.96 | competitively | 4.32 | 4.48 | competitively | – | – | – | – | – |
| CC(C)(C)OC(=O)n1cc(C[C@@H](NC(=O)OCC2c3ccccc3-c3ccccc32)C(=O)O)c2ccccc21 [Compound 96, Fmoc-D-Trp(Boc)] | – | – | – | – | – | – | – | > 72 | inhibitory | > 75 | inhibitory | – |
| CC(C)(C)OC(=O)N[C@H](Cc1ccc(OC(=O)OCc2ccccc2Br)cc1)C(=O)O [Compound 30, Boc-D-Tyr(2-Br-Z)] | – | – | – | – | – | – | – | > 72 | – | – | – | species preference of N-phos inhibition (human versus mouse), in words (N-phos in human sEH): more potent on inhibiting the human N-phos than the mouse enzyme |
| COc1ccc(C[C@@H](NC(=O)OCC2c3ccccc3-c3ccccc32)C(=O)O)cc1 [Compound 72, Fmoc-D-Tyr(Me)] | < 3.70 | > 31 | – | – | – | – | – | > 72 | – | – | – | time-dependent change in C-EH inhibition, human sEH (C-EH in human sEH): no time-dependent change |
| O=C(N[C@@H](Cc1c[nH]c2ccccc12)C(=O)O)OCC1c2ccccc2-c2ccccc21 [Compound 78, Fmoc-L-Trp] | – | – | – | – | ~3.70 | – | – | – | inhibitory | > 75 | inhibitory | time-dependent change in C-EH inhibition, mouse sEH (C-EH in mouse sEH): did not display any time-dependent change; selectivity index (N-phos over C-EH) in mouse sEH (N-phos in mouse sEH): ~ 50 |
| CC(C)(C)OC(=O)N[C@@H](Cc1ccc(OCc2ccccc2)cc1)C(=O)O [Compound 23, Boc-L-Tyr(Bzl)] | 3.72 | 127 | 6.05 | competitively | – | 5.05 | competitively | > 72 | – | – | – | time-dependent change in C-EH inhibition, human sEH (C-EH in human sEH): no time-dependent change; species preference of N-phos inhibition (human versus mouse), in words (N-phos in human sEH): more potent on inhibiting the human N-phos than the mouse enzyme; preference for human N-phos over mouse N-phos (N-phos in human sEH; ratio of KI values): 10 fold |
| N#Cc1ccc(C[C@H](NC(=O)OCC2c3ccccc3-c3ccccc32)C(=O)O)cc1 [Compound 67, Fmoc-L-Phe(4-CN)] | – | – | 4.59 | competitively | 4.07 | 5.96 | competitively | – | – | > 75 | – | time-dependent change in C-EH inhibition, mouse sEH (C-EH in mouse sEH): did not display any time-dependent change; selectivity index (N-phos over C-EH) in mouse sEH (N-phos in mouse sEH): 37; species preference of N-phos inhibition (mouse versus human), in words (N-phos in mouse sEH): more potent on inhibiting the mouse N-phos than the human enzyme; preference for mouse N-phos over human N-phos (N-phos in mouse sEH; ratio of KI values): 24 fold |
| O=C(N[C@@H](Cc1ccccc1Cl)C(=O)O)OCC1c2ccccc2-c2ccccc21 [Compound 73, Fmoc-L-Phe(2-Cl)] | – | – | – | – | – | – | – | – | – | > 75 | – | species preference of N-phos inhibition (mouse versus human), in words (N-phos in mouse sEH): more potent on inhibiting the mouse N-phos than the human enzyme |
| CC(C)(C)OC(=O)n1cc(C[C@H](NC(=O)OCC2c3ccccc3-c3ccccc32)C(=O)O)c2ccccc21 [Compound 95, Fmoc-L-Trp(Boc)] | – | – | – | – | – | – | – | > 72 | inhibitory | > 75 | inhibitory | – |
